Test results from ChEMBL document CHEMBL1201862, “PubChem BioAssay data set” (2004).
Values belong to the molecule of their own block, whether it stands above or below them. Calls of active or inactive are those of the source.

Experiments:
HEK293 [1] = test: HEK293T cell cytotoxicity, dose response, cytotoxicity control, ATP luminescence, cherry-pick samples (AID 687005); format: functional, cell-based; conditions: Homo sapiens;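 note: cells exposed to compound for 48 hours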
[2] = HEK293 Cytotoxicity Assay Measured in Cell-Based System Using Plate Reader - 7071-01_Inhibitor_Dose_CherryPick_Activity_Set2.; format: functional
[3] = target: T1, Nuclear receptor subfamily 0 group B member 1 (Homo sapiens, UniProt P51843); format: functional, cell-based;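 note: HEK293T cells transfected with SF-1 and DAX-1 plus StAR promoter luciferase reporter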
T1 sequence (P51843 whole entry): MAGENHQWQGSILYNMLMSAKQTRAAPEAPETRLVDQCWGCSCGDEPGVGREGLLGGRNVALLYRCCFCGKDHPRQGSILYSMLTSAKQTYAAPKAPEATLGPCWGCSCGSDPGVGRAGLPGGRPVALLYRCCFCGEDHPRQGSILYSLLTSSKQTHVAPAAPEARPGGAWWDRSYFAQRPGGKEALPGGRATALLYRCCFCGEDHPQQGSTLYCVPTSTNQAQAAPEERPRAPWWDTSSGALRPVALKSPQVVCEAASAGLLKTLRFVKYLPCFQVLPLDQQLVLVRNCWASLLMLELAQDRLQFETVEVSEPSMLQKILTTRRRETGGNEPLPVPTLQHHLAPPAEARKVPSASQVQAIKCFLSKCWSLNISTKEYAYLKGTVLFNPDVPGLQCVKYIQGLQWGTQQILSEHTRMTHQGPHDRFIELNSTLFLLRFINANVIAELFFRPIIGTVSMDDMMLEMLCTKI

H9c2 = test: cells; format: functional, cell-based; conditions: Rattus norvegicus, H9c2, Myocardium;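 note: confirmatory concentration-response retest of ultra-high-throughput screening hits for modulation of myocardial damage; cell death induced by hydrogen peroxide oxidative stress; compound pretreatment for 60 min then peroxide exposure for 2 h; potency is for protecting the cells against peroxide damage rather than for killing them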
cells = format: functional, cell-based
fMet-Leu-Phe receptor = fMet-Leu-Phe receptor (Homo sapiens, UniProt P21462); test: FPR ligands, dose response (AID 519); format: functional
Chain of fMet-Leu-Phe receptor (P21462 whole entry): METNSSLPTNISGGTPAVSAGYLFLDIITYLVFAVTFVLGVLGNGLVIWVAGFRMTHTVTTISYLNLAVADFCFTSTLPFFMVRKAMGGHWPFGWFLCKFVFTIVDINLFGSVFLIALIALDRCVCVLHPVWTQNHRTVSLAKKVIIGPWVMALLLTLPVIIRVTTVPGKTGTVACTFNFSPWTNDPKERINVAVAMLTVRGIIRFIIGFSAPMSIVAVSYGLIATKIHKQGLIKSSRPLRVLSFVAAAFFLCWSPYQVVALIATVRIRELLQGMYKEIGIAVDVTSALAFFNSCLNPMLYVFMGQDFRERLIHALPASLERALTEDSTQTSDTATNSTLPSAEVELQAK

[4] = HEK293T cytotoxicity, dose response, cytotoxicity control for miR-122 modulator project, cell-based, activator set, cherry-pick (AID 720690); format: functional;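 note: HEK293T human cells scored for general mammalian cytotoxicity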
[5] = target: Histone-lysine N-methyltransferase NSD2 (Homo sapiens, UniProt O96028); format: biochemical
Chain of Histone-lysine N-methyltransferase NSD2 (O96028 whole entry): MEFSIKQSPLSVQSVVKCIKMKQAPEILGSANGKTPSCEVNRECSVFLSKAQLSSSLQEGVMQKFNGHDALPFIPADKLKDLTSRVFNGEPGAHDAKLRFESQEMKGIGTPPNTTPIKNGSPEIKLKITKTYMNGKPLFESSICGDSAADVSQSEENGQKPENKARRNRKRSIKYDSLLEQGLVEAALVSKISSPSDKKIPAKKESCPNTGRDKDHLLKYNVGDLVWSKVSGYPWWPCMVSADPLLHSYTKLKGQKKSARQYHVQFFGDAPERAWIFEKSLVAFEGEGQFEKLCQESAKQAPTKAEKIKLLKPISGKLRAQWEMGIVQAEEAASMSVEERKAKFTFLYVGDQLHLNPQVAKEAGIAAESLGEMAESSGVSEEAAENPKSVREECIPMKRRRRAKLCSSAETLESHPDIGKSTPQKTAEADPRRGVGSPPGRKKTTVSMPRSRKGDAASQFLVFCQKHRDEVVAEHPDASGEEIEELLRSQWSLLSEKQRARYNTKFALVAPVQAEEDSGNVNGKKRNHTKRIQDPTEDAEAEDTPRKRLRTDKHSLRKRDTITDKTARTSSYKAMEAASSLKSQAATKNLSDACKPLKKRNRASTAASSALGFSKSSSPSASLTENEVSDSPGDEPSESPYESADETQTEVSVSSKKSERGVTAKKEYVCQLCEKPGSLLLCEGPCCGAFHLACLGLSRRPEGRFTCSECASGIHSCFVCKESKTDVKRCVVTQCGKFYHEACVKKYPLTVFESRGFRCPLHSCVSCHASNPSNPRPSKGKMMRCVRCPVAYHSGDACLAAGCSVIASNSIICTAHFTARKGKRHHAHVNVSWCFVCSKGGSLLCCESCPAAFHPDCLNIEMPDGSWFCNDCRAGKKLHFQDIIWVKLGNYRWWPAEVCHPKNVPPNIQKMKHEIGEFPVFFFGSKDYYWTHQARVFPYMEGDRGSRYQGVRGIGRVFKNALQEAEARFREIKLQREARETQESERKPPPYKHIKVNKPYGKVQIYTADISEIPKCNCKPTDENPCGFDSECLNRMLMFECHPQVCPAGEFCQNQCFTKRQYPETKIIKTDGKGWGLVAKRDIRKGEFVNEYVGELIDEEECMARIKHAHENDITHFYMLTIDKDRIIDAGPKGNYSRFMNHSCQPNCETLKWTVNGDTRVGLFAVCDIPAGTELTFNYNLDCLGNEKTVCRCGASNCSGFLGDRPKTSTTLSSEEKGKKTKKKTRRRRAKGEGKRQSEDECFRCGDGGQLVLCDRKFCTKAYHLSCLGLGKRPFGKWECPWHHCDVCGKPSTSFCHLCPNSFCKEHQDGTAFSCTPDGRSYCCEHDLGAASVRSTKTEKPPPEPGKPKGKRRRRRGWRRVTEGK

[6] = MC4R antagonists, dose response, counter-screen for LGR2 antagonist project, cell-based, plate reader, cherry pick (AID 743444); format: functional;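 note: transfected HEK 293 cells stimulated with alpha-MSH peptide; potency of inhibitors of the alpha-MSH evoked signal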
[7] = Fluorescence-based cell-based high throughput dose response assay for inhibitors of the interaction of nucleotide-binding oligomerization domain containing 2 (NOD2) and the receptor-interacting serine-threonine kinase 2 (RIPK2).; format: functional; conditions: Homo sapiens
BJ [8] = test: cells; format: functional, cell-based; conditions: Homo sapiens
BJ [9] = test: cytotoxicity toward Ras-transformed BJeLR fibroblasts, dose response, cell-based, alamar blue fluorescence, cherrypicked samples (AID 2631); format: functional; conditions: Homo sapiens;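 note: confirmatory dose-response assay in RAS-dependent BJ fibroblasts engineered with TERT, LT and ST, with cytotoxicity read by fluorescence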
[10] = HEK293 cell cytotoxicity, dose response, cytotoxicity control, plate reader, cherry-picked samples (AID 743446); format: functional, cell-based
[11] = Luminescence Cell-Based Dose Retest to Confirm Inhibitors of Cancer Stem Cells. [Related pubchem assays (depositor defined):AID2717, AID2721]; format: functional; conditions: Homo sapiens
Paired box protein Pax-8 = Paired box protein Pax-8 (Homo sapiens, UniProt Q06710); test: inhibitors of PAX8-driven TPO luciferase reporter, dose response, RMG-I cells, cherry-pick (AID 687027); format: functional, cell-based;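 note: luciferase reporter driven by Pax8 target thyroperoxidase promoter measured by SteadyGlo luminescence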
Chain of Paired box protein Pax-8 (Q06710 whole entry): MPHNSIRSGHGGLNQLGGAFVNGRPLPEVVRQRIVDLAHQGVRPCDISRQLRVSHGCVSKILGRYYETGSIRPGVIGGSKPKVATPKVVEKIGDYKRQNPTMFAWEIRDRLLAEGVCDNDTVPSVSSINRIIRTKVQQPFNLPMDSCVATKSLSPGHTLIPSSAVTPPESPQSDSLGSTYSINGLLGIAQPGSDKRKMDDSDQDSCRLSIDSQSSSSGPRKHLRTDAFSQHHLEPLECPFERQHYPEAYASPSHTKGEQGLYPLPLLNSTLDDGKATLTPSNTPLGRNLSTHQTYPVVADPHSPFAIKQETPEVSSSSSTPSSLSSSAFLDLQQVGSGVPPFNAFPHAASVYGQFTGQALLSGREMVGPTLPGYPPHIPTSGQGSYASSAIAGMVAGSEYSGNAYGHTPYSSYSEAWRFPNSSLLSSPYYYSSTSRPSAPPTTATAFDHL

[12] = non-specific cell cytotoxicity, dose response, cytotoxicity control for PAX8 inhibitor project, plate reader, dry powder samples (AID 743021); format: functional, cell-based
[13] = cytotoxicity toward DRD oncogenic fibroblasts, dose response, cell-based, non-viral oncogenic, luminescence (AID 1934); format: functional; conditions: Homo sapiens
[14] = A549 cell cytotoxicity, dose response, cytotoxicity control, plate reader, cherry-pick, antagonist series (AID 743412); format: functional, cell-based
[15] = HepG2 cell cytotoxicity, dose response, cytotoxicity control for Shn3 inhibitor project, CellTiter-Glo, cherry-picked (AID 624134); format: functional, cell-based
[16] = HepG2 cell cytotoxicity, dose response, cytotoxicity control, plate reader, cherry-pick, antagonist series (AID 743416); format: functional, cell-based
[17] = control 3'UTR Renilla luciferase suppression, dose response, counter-screen for Shn3 inhibitor project, cell-based, Clone20-Shn3RL, cherry-picked (AID 624133); format: functional
BJ [18] = test: cytotoxicity toward BJ-TERT-LT-ST fibroblasts, dose response, cell-based, RAS-independent, luminescence (AID 1935); format: functional; conditions: Homo sapiens;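 note: BJ fibroblasts immortalized with TERT plus LT and ST oncogenes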
[19] = Shn3 3'UTR reporter inhibitors, dose response, cell-based, Clone20 osteoblasts, firefly luciferase, cherry-picked (AID 624132); format: functional;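 note: firefly luciferase luminescence from reporter carrying the Shn3 3'UTR in osteoblasts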
HEK293 [20] = test: inhibitors of LMP1-driven NF-kB reporter, dose response, cell-based, HEK293, luciferase, cherry-pick (AID 588343); format: functional; conditions: Homo sapiens
BJ [21] = test: cytotoxicity toward BJ-TERT fibroblasts, dose response, cell-based, RAS-independent, luminescence (AID 1933); format: functional; conditions: Homo sapiens
[22] = miR-122 activators in hepatoma reporter cells, dose response, cell-based, Huh7 psiCHECK-miR122, Renilla luciferase, cherry-picked (AID 651956); format: functional;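 note: huh7 hepatoma cells stably carrying a psiCHECK-2 miR-122 sensor plasmid; renilla luciferase signal reporting endogenous miR-122 activity after 48 h compound exposure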
[23] = LGR2 antagonists, dose response, cell-based, HEK293, CRE-luciferase reporter, cherry pick, set 2 (AID 743343); format: functional;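 note: transfected cells were stimulated with diluted bursicon conditioned medium after compound addition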
[24] = ZM109 Env clade C HIV-1 fusion inhibitors, dose response, HeLa effector, CEM target cells, luciferase, cherry-pick (AID 652058); format: functional, cell-based
[25] = inhibitors of clade B AD8 Env fusion, dose response, cell-based, cherry-pick (AID 652062); format: functional;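 note: luciferase signal from cell-cell fusion driven by HIV-1 clade B AD8 Env; potency is for inhibitors of fusion seen as a drop in luminescence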
[26] = inhibitors of HIV Env-driven cell fusion, dose response, cherry-pick (AID 652057); format: functional, cell-based
[27] = off-target signal loss in HeLa-CEM21 co-culture – HeLa F-luc CTL cells, cherry-picked, counter-screen for HIV-1 Env fusion inhibitor project, dose response (AID 652040); format: functional, cell-based;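 note: potency for signal decrease marking cytotoxic or nonspecific inhibition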
[28] = CEM21 lymphoblast cell cytotoxicity, dose response, cytotoxicity control for viral fusion inhibitor project, CellTiter-Glo luminescence, cherry-picked (AID 652042); format: functional, cell-based;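 note: potency for signal decrease meaning cytotoxicity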
[29] = NIH:OVCAR-3 ovarian cancer cell cytotoxicity, dose response, PAX8 inhibitor project, plate reader, dry powder samples (AID 743044); format: functional, cell-based
[30] = IGROV1 ovarian cancer cell cytotoxicity, dose response, PAX8 inhibitor project, plate reader, dry powder samples (AID 743043); format: functional, cell-based; conditions: IGROV-1
[31] = HEK293T cytotoxicity, dose response, cytotoxicity control for miR-122 modulator project, cell-based, inhibitor set, cherry-pick, set 2 (AID 720697); format: functional
[32] = RKO cell viability reduction, dose response, CellTiter-Glo luminescence (AID 1117322); format: functional
[33] = HeLa 2N DNA content increase, dose response, cell-based, IC50 (AID 1117349); format: functional
[34] = Concentration-dependent survival of SW480 colon cancer line, luminescence detection with CellTiter-Glo, half-maximal inhibitory concentration (AID 1117338); format: functional
[35] = SNU-C1 cell viability reduction, dose response, CellTiter-Glo luminescence (AID 1117323); format: functional, cell-based
[36] = cytotoxicity toward Colo320 cells – cell-based, CellTiter-Glo luminescence, IC50, dose response (AID 1117334); format: functional; conditions: COLO 320
[37] = HeLa 4N DNA content increase, dose response, cell-based, IC50 (AID 1117351); format: functional
[38] = cytotoxicity toward HCT116 cells – cell-based, CellTiter-Glo luminescence, IC50, dose response (AID 1117332); format: functional; conditions: HCT-116
[39] = cytotoxicity toward HT-29 cells – cell-based, CellTiter-Glo luminescence, IC50, dose response (AID 1117330); format: functional
[40] = target: DNA repair protein RAD52 homolog (Homo sapiens, UniProt P43351); format: functional, biochemical
Chain of DNA repair protein RAD52 homolog (P43351 whole entry): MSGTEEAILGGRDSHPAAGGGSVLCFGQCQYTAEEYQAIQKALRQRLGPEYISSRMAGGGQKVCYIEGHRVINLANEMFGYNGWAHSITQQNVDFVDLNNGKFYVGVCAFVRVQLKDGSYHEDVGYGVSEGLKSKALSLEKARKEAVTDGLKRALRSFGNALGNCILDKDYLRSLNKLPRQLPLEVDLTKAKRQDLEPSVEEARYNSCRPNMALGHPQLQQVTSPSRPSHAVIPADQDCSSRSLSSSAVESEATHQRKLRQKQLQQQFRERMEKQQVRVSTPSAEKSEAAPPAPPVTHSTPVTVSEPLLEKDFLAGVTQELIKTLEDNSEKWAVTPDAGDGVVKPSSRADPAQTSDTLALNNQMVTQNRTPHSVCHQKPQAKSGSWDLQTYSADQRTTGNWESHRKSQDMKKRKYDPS

SMILES: Cc1ccc(S(=O)(=O)N[C@H]2C=C[C@@H](CC(=O)N3CCC(Cc4ccccc4)CC3)O[C@H]2CO)cc1
AC50 (HEK293 [1]): 14.2 µM (active)
AC50 [2]: 14.2 µM (active)

SMILES: COc1cc(/C=C(\C#N)C(=O)Nc2ccccc2F)ccc1OCCN1CCOCC1
IC50 [3]: > 67.5 µM (inactive)
IC50 (H9c2): 8.88 µM (active)
IC50 (cells): > 67.5 µM (inactive)

SMILES: COc1ccc(S(=O)(=O)N[C@H]2C=C[C@H](CC(=O)N3CCC(Cc4ccccc4)CC3)O[C@@H]2CO)cc1
AC50 (HEK293 [1]): 9.52 µM (active)
AC50 [2]: 9.52 µM (active)

Ki (fMet-Leu-Phe receptor): 50 µM (inactive)
SMILES: CC(C)OC(=O)c1nnn(-c2nonc2N)c1CN1CCc2ccccc2C1

SMILES: C[C@H]1CN([C@@H](C)CO)S(=O)(=O)c2ccc(-c3ccccc3F)cc2O[C@@H]1CN(C)Cc1cccnc1
AC50 [4]: 23 µM (active)

Ki (fMet-Leu-Phe receptor): 12.4 µM (active)
SMILES: O=C(C1=C(O)C(=O)N(Cc2ccccc2)C1c1ccco1)c1ccco1 (stereo unspecified)

AC50 [5]: > 20 µM (inactive)
SMILES: Nc1ccc2nn(-c3cc([N+](=O)[O-])ccc3O)nc2c1

SMILES: Cc1cccc(-n2ncc(Cl)c(Cl)c2=O)c1
AC50 [6]: 27.5 µM (active)
IC50 [7]: 5.33 µM (active)
EC50 (BJ [8]): > 150 µM (inconclusive)
EC50 (BJ [9]): 0.556 µM (active)
AC50 [4]: 2.27 µM (active)
AC50 [10]: 7.36 µM (active)
AC50 [11]: 2.66 µM (active)
AC50 (Paired box protein Pax-8): 5.11 µM (active)
AC50 [12]: 25.6 µM (active)
EC50 [13]: 5.17 µM (active)
AC50 [14]: 7.6 µM (active)
AC50 [15]: 40.7 µM (active)
AC50 [16]: 8.69 µM (active)
AC50 [17]: 12.4 µM (active)
EC50 (BJ [18]): 5.1 µM (inconclusive)
AC50 [19]: 5.8 µM (active)
AC50 (HEK293 [20]): 3.08 µM (active)
EC50 (BJ [21]): 1.02 µM (active)
AC50 [22]: 8.05 µM (active)
AC50 [23]: 20.4 µM (active)

SMILES: COC(=O)[C@]12C[C@H](CC(=O)NCC3CCCCC3)C(=O)N(CCC3=CCCCC3)C1=C[C@H](C(C)(C)C)O[C@@H]2C
AC50 [24]: 3.66 µM (active)
AC50 [25]: 3.6 µM (active)
AC50 [26]: 2.45 µM (active)
AC50 [27]: 3.68 µM (active)
AC50 [28]: 21.5 µM (active)

SMILES: C[C@H]1CCCCO[C@H](CN(C)Cc2ccc(C(F)(F)F)cc2)[C@@H](C)CN([C@@H](C)CO)C(=O)c2cc(NC(=O)c3ccccc3)ccc2O1
AC50 [29]: 21.2 µM (active)
AC50 (Paired box protein Pax-8): 8.95 µM (active)
AC50 [30]: 36.4 µM (active)

SMILES: C[C@@H]1CN([C@@H](C)CO)C(=O)c2cc(NC(=O)NC3CCCCC3)ccc2O[C@@H]1CN(C)C(=O)Nc1ccc2c(c1)OCO2
AC50 [31]: 9.33 µM (active)

SMILES: COC(=O)Nc1nc2ccc(C(=O)C3CC3)cc2[nH]1 [CYCLOBENDAZOLE]
IC50 [3]: > 67.5 µM (inactive)
IC50 [32]: 0.162 µM (active)
IC50 [33]: 0.417 µM (active)
IC50 [34]: > 20 µM (inactive)
IC50 [35]: > 20 µM (inactive)
IC50 [36]: 0.156 µM (active)
IC50 [37]: 0.416 µM (active)
IC50 (cells): > 67.5 µM (inactive)
IC50 [38]: 0.174 µM (active)
IC50 [39]: 1.68 µM (active)

AC50 [40]: 21.7 µM (active)
SMILES: CN(C)CCCNc1ncnc2oc(-c3ccccc3)c(-c3ccccc3)c12
